We go through two compounds from article doi:10.1101/718940v1 (biorxiv, 2019).

Structures are written as SMILES.

For the assay, the target named is TENT4B (PAPD5) (Homo sapiens, UniProt Q8NDF8). Nature of the assay: ATP depletion polyadenylation assay. It counts as biochemical.
TENT4B (PAPD5), sequence (Q8NDF8 whole entry): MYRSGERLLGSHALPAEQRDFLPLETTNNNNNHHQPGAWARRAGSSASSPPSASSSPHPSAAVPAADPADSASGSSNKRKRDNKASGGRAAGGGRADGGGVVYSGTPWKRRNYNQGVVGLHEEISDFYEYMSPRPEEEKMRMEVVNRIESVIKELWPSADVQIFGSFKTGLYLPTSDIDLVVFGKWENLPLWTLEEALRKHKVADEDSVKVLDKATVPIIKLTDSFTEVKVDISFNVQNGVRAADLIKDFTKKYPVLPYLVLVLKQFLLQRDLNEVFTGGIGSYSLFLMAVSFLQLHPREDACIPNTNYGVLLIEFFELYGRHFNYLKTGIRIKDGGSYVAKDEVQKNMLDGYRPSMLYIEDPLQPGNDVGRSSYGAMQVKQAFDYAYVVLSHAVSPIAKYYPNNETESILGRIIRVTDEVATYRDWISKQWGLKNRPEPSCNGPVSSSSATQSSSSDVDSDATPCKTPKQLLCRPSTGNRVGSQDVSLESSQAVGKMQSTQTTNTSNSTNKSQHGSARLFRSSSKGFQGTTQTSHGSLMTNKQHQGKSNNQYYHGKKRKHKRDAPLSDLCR

For the compound `COCCCOc1cc2c(cc1OC)-c1cc(=O)c(C(=O)O)cn1[C@H](C(C)C)C2` [RG7834], the IC50 was found to be 1.3 nM.

On to `COCCCOc1cc2c(cc1OC)-c1cc(=O)c(C(=O)O)cn1[C@@H](C(C)C)C2` [RO0321], for which half-maximal inhibition (IC50) required 76 nM.

In general, IC50 refers to the midpoint of a concentration-inhibition curve.
